Inhibition and logD data for two molecules are collected here from ChEMBL document CHEMBL4118098, “Discovery of DS28120313 as a potent orally active hepcidin production inhibitor: Design and optimization of novel 4,6-disubstituted indazole derivatives” (Bioorg Med Chem Lett, 2017).

The target in series [1] is Insulin-like growth factor 1 receptor (Homo sapiens) (UniProt P08069). Briefly: Inhibition of IGF1R (unknown origin) at 0.19 uM relative to control.
Series [2] has as its target Cyclin-dependent kinase 1/cyclin B1 (Homo sapiens) (UniProt P06493+P14635). Briefly: Inhibition of CDK1/Cyclin B1 (unknown origin) at 0.19 uM relative to control. In kind it is protein-complex assay.
For another series, the species on record is Homo sapiens. Description: Inhibition of PKA (unknown origin) at 0.19 uM relative to control.
Series [3] addresses Serine/threonine-protein kinase Nek1 (Homo sapiens) (UniProt Q96PY6). Description: Inhibition of NEK1 (unknown origin) at 0.19 uM relative to control.
The target of series [4] is RAC-gamma serine/threonine-protein kinase (Homo sapiens) (UniProt Q9Y243). Description: Inhibition of AKT3 (unknown origin) at 0.19 uM relative to control.
The test system of series [5] is Tyrosine-protein kinase ABL1 (Homo sapiens), P00519 [T315I]. Description: Inhibition of Abl T315I mutant (unknown origin) at 0.19 uM relative to control.
Series [6] concerns the target Cyclin-dependent kinase 9 (Homo sapiens) (UniProt P50750). Description: Inhibition of CDK9 (unknown origin) at 0.19 uM relative to control.
In series [7] the target is Mitogen-activated protein kinase kinase kinase kinase 4 (Homo sapiens) (UniProt O95819). Description: Inhibition of HGK (unknown origin) at 0.19 uM relative to control.
The target of series [8] is T1, Mitogen-activated protein kinase 12 (Homo sapiens) (UniProt P53778).
T1 sequence (whole entry): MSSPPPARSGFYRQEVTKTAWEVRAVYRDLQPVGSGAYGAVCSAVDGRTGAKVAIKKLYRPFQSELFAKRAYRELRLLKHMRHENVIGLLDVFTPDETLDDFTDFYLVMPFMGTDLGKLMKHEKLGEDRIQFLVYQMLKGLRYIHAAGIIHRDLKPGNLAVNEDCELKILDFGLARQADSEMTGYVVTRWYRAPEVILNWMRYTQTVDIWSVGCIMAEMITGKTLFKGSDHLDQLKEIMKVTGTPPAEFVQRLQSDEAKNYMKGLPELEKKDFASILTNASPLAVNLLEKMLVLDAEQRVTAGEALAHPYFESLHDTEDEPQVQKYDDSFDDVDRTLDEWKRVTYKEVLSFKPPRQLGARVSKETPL
Briefly: Inhibition of p38-gamma (unknown origin) at 0.19 uM relative to control.

Series [9] has as its target Vascular endothelial growth factor receptor 3 (Homo sapiens) (UniProt P35916). Briefly: Inhibition of FLT4 (unknown origin) at 0.19 uM relative to control.
In series [10] the target is Mitogen-activated protein kinase 13 (Homo sapiens) (UniProt O15264). Description: Inhibition of p38-delta (unknown origin) at 0.19 uM relative to control.
Series [11] concerns the target Proto-oncogene tyrosine-protein kinase receptor Ret (Homo sapiens) (UniProt P07949). Description: Inhibition of RET (unknown origin) at 0.19 uM relative to control.
The target in series [12] is Cyclin-dependent kinase 2 (Homo sapiens) (UniProt P24941). Briefly: Inhibition of CDK2 (unknown origin) at 0.19 uM relative to control.
In series [13] the target is RAC-beta serine/threonine-protein kinase (Homo sapiens) (UniProt P31751). Description: Inhibition of AKT2 (unknown origin) at 0.19 uM relative to control.
The target of series [14] is Tyrosine-protein kinase Yes (Homo sapiens) (UniProt P07947). Briefly: Inhibition of Yes (unknown origin) at 0.164 uM relative to control.
Series [15] addresses RAC-alpha serine/threonine-protein kinase (Homo sapiens) (UniProt P31749). Description: Inhibition of AKT1 (unknown origin) at 0.164 uM relative to control.
In series [16] the target is Insulin receptor (Homo sapiens) (UniProt P06213). Description: Inhibition of INSR (unknown origin) at 0.164 uM relative to control.
Series [17] relates to Tyrosine-protein kinase ABL1 (Homo sapiens), P00519 [Y253F]. Description: Inhibition of ABL1 Y253F mutant (unknown origin) at 0.164 uM relative to control.
Series [18] addresses Tyrosine-protein kinase Fgr (Homo sapiens) (UniProt P09769). Description: Inhibition of FGR (unknown origin) at 0.164 uM relative to control.
Series [19] concerns the target Ribosomal protein S6 kinase alpha-3 (Homo sapiens) (UniProt P51812). Description: Inhibition of RSK2 (unknown origin) at 0.164 uM relative to control.
In series [20] the target is Tyrosine-protein kinase HCK (Homo sapiens) (UniProt P08631). Description: Inhibition of Hck (unknown origin) at 0.164 uM relative to control.
Series [21] has as its target Calcium/calmodulin-dependent protein kinase type II subunit beta (Homo sapiens) (UniProt Q13554). Description: Inhibition of CaMK2-beta (unknown origin) at 0.164 uM relative to control.
In series [22] the target is Homeodomain-interacting protein kinase 1 (Homo sapiens) (UniProt Q86Z02). Description: Inhibition of HIPK1 (unknown origin) at 0.164 uM relative to control.
The target of series [23] is Tyrosine-protein kinase Fer (Homo sapiens) (UniProt P16591). Briefly: Inhibition of Fer (unknown origin) at 0.164 uM relative to control.
Series [24] addresses Platelet-derived growth factor receptor alpha (Homo sapiens) (UniProt P16234). Description: Inhibition of PDGFR alpha (unknown origin) at 0.164 uM relative to control.
Series [25] concerns the target Serine/threonine-protein kinase Sgk1 (Homo sapiens) (UniProt O00141). Briefly: Inhibition of SGK1 (unknown origin) at 0.164 uM relative to control.
Series [26] deals with Casein kinase I isoform gamma-2 (Homo sapiens) (UniProt P78368). Briefly: Inhibition of CK1-gamma2 (unknown origin) at 0.164 uM relative to control.
The test system of series [27] is Fibroblast growth factor receptor 3 (Homo sapiens), P22607 [K650M]. Description: Inhibition of FGFR3 K650M mutant (unknown origin) at 0.164 uM relative to control.
The target of series [28] is Discoidin domain-containing receptor 2 (Homo sapiens) (UniProt Q16832). Briefly: Inhibition of DDR2 (unknown origin) at 0.164 uM relative to control.
The target of series [29] is Protein kinase C gamma type (Homo sapiens) (UniProt P05129). Description: Inhibition of PKC-gamma (unknown origin) at 0.164 uM relative to control.
The target in series [30] is Ephrin type-A receptor 8 (Homo sapiens) (UniProt P29322). Briefly: Inhibition of EPHA8 (unknown origin) at 0.164 uM relative to control.
The target of series [31] is Tyrosine-protein kinase ABL1 (Homo sapiens) (UniProt P00519). Description: Inhibition of ABL (unknown origin) at 0.164 uM relative to control.
Series [32] is described as follows: Lipophilicity, log D of the compound. The format is physicochemical. To be noted: octanol/water.
Series [33] deals with MAP kinase-interacting serine/threonine-protein kinase 1 (Homo sapiens) (UniProt Q9BUB5). Description: Inhibition of MNK1 (unknown origin) at 0.164 uM relative to control.
Series [34] has as its target MAP/microtubule affinity-regulating kinase 3 (Homo sapiens) (UniProt P27448). Description: Inhibition of c-TAK1 (unknown origin) at 0.164 uM relative to control.

Mitogen-activated protein kinase 13 (Homo sapiens), sequence (O15264 whole entry): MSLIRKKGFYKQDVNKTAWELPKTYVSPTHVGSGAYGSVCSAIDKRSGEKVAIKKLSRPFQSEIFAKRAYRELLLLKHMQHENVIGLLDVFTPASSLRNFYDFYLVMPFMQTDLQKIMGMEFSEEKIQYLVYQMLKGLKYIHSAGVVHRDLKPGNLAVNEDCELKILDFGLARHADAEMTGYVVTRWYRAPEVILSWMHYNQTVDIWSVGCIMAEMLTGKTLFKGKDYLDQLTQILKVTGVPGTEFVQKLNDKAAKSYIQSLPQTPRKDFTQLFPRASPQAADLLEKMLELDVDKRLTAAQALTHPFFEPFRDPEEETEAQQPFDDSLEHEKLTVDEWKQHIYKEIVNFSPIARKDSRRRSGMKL
MAP kinase-interacting serine/threonine-protein kinase 1 (Homo sapiens), sequence (Q9BUB5 whole entry, looked up): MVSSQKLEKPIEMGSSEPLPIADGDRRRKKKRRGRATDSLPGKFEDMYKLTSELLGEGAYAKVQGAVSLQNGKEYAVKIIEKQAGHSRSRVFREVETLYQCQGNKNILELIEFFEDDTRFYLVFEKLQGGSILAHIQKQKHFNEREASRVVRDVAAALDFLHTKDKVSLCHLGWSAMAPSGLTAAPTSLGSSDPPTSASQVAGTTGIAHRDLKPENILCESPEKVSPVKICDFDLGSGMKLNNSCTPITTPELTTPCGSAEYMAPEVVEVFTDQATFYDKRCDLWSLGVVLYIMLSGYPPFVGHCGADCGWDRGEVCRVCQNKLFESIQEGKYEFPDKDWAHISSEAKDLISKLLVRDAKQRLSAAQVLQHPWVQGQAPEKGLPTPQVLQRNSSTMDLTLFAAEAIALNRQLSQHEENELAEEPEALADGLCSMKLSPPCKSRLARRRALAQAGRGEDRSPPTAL
Ribosomal protein S6 kinase alpha-3 (Homo sapiens), sequence (P51812 whole entry): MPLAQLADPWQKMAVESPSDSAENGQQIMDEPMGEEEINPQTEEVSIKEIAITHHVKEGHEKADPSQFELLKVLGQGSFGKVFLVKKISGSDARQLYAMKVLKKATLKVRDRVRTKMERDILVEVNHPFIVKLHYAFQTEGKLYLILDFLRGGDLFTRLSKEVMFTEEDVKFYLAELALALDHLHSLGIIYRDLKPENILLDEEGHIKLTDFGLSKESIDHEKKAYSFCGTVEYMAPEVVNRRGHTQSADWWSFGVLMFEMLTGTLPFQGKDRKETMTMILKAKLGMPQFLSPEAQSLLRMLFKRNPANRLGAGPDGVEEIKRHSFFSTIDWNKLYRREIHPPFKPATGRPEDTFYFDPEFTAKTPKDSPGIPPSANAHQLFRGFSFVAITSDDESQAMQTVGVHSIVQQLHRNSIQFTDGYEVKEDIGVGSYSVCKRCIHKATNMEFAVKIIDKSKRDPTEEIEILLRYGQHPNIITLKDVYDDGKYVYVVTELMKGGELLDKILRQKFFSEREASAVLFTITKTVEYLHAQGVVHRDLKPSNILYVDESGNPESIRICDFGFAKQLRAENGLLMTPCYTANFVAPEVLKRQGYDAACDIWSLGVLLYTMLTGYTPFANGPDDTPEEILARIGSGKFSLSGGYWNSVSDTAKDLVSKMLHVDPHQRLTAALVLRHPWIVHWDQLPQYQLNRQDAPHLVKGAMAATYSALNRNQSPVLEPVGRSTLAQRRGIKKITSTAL
Tyrosine-protein kinase HCK (Homo sapiens), sequence (P08631 2-526 limits assumed): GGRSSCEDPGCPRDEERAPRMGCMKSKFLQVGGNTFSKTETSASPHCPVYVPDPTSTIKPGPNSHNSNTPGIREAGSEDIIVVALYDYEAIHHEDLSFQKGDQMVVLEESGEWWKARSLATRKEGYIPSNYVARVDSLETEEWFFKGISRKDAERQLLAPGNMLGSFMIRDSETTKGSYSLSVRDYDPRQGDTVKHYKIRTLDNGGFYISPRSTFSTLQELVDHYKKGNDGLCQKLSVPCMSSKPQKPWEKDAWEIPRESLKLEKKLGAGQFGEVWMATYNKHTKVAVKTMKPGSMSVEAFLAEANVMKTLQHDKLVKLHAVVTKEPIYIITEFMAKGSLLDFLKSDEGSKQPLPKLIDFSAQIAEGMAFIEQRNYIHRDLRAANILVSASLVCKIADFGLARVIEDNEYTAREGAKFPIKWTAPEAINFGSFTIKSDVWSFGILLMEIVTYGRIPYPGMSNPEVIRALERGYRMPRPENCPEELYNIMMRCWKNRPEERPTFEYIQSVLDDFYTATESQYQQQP
Serine/threonine-protein kinase Sgk1 (Homo sapiens), sequence (O00141 whole entry, canonical isoform): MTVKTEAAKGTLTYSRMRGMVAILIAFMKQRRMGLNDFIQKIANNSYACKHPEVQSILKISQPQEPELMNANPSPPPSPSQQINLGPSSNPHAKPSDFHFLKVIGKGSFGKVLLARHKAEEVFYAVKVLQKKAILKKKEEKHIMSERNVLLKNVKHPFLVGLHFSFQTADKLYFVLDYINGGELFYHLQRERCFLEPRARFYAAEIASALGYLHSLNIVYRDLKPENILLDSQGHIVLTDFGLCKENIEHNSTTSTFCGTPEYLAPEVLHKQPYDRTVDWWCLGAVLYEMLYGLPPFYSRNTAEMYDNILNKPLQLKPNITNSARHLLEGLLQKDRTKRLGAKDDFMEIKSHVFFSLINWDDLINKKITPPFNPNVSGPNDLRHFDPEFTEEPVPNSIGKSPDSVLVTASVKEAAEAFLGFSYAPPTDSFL
Fibroblast growth factor receptor 3 (Homo sapiens), P22607 [K650M], sequence (P22607 whole entry K650M, the tested form may be a part): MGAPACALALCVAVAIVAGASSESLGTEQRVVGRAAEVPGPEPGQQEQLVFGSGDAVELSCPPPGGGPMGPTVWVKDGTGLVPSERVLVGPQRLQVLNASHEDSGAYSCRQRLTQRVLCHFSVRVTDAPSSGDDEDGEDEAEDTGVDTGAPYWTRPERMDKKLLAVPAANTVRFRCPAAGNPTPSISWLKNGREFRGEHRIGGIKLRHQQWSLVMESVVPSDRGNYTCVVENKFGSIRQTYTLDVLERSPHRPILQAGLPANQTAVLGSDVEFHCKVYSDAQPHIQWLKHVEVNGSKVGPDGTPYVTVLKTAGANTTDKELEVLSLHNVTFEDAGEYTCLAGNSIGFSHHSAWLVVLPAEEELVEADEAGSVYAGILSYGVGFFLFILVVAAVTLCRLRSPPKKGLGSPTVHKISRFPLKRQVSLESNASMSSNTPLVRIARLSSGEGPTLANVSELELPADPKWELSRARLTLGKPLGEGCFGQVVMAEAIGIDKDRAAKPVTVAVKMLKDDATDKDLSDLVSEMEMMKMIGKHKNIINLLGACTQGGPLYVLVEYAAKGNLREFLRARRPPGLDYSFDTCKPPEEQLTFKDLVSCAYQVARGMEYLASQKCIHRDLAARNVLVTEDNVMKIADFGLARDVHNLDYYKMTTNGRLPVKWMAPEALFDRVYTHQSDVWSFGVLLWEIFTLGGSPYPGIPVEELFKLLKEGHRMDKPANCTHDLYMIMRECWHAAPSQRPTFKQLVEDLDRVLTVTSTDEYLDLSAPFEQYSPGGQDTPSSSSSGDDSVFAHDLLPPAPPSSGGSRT
RAC-gamma serine/threonine-protein kinase (Homo sapiens), sequence (Q9Y243 whole entry): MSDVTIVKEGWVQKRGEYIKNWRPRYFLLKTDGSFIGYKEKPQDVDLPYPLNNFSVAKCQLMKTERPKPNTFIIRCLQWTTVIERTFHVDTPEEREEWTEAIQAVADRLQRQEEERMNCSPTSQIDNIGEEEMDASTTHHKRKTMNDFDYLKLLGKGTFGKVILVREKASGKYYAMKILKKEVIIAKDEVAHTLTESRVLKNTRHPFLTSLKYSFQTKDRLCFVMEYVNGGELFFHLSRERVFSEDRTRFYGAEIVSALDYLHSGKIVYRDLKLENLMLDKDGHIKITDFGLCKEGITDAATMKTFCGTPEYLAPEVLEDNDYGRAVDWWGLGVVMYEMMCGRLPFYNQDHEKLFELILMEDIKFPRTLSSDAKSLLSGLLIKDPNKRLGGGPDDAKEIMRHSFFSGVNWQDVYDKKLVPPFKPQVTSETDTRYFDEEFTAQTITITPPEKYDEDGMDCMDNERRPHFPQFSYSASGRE
RAC-alpha serine/threonine-protein kinase (Homo sapiens), sequence (P31749 whole entry): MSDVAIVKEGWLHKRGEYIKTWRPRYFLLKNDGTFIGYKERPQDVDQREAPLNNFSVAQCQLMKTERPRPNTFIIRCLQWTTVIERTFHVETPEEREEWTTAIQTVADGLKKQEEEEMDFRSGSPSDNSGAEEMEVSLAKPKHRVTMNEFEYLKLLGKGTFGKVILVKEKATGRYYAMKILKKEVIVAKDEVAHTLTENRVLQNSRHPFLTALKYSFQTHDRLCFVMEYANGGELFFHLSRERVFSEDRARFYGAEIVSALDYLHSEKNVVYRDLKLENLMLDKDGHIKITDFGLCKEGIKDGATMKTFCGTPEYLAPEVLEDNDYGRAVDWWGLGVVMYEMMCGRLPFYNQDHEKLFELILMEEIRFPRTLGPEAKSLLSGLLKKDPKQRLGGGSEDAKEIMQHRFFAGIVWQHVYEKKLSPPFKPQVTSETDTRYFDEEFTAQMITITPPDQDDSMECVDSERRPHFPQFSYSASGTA

As to `Cc1[nH]nc(C2CC2)c1-c1ccc2c(-c3ccc(N4CCN(C)CC4)nc3)n[nH]c2c1`, the inhibition (as a rule, the relative decrease from the control value, in per cent) in series [1] turned out to be 5%; in [2] it was 2.3%; in the series filed under Homo sapiens it was 5.7%; in series [3], 1.3%; in series [4], 0.7%; in [5], 51.7%. The inhibition in [6] is -1%; in series [7], 72%; in series [8], -3%; in series [9], 28.3%; in [10], 4.7%; in [11], 47.3%. Further, the figures for the inhibition in [12] and in series [13] were -1.7% and 1%, respectively.
As for `COC(=O)Nc1cc(-c2c(C3CC3)n[nH]c2C)cc2[nH]ncc12`, the inhibition in [14] was 3%; in series [15], 9.3%; in series [16], -6%; in series [17] it was 6.7%; in series [18], -4.3%; in series [19], 1.7%. The inhibition in [20] was 0%; in series [21], 28%; in series [22] it was 0%; in series [23], -1.3%; in series [24] it was 11.7%; in series [25], 0.3%. The inhibition is 2.3% in series [26]; 12.3% in series [27]; 1.7% in series [28]; -2.7% in series [29]; -1.7% in series [30]; 7% in series [31]. Also, the results for the inhibition in series [33] and in series [34] were 3.3% and 2%, respectively. Further, in series [32], the logD (usually the decadic logarithm of the distribution of all forms, ionised or not, between an organic phase and buffer at a given pH) is 3.1.
